In ChEMBL document CHEMBL1201862, “PubChem BioAssay data set” (2004):
Calls of active or inactive are those of the source. Cut-off read from the data, not from the text of the source: actives have a measured IC50 and inactives only a lower limit.

Target: Envelope glycoprotein gp160 (Human immunodeficiency virus 1, UniProt Q6QLK5)
Assay: cell-free HIV fusion peptide-binding blockers – biochemical, uHTS, fluorescence dequenching, […] (AID 1986)

Envelope glycoprotein gp160, sequence (Q6QLK5 whole entry, the tested form may be a part): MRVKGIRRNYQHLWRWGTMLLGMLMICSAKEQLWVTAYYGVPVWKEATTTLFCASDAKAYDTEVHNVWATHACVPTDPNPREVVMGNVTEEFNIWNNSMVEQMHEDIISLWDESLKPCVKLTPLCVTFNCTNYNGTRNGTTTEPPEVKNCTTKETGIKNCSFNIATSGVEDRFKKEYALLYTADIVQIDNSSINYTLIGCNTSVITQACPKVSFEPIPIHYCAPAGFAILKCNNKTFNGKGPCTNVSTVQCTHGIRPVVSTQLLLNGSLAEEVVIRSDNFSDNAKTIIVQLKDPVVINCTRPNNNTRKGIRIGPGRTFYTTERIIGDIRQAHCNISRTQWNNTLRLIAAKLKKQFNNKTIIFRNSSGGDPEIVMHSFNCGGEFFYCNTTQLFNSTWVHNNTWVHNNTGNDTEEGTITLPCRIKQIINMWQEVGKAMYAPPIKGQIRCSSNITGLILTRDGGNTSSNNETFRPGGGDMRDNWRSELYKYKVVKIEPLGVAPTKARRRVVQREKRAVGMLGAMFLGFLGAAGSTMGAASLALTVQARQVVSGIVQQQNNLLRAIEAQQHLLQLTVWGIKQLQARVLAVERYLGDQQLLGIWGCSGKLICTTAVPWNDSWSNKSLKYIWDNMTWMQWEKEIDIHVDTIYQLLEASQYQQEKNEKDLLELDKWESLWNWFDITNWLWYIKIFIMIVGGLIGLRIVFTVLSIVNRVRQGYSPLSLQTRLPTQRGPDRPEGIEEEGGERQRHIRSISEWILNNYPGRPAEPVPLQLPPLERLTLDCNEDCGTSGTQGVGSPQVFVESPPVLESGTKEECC

COc1ccc(C(=O)/C=C/c2cccc(OCc3ccccc3)c2)cc1CSCC(=O)O
IC50: 29.2 µM (active)
